# From patent US12016910B2, “Antigenic peptides for prevention and treatment of cancer” (ENTEROME S.A., priority 2018, dated 2024)
# Tests used:
# [1] = target: T1, HLA-A*0201 (Homo sapiens, UniProt P04439, D140Y/D185E/D98H/E176V/E277Q/G131W/G231S/I119V/I121R/I166T/I218V/L300P/L318F/N151K/N90K/P208A/P217A/Q86G/Q94H/R138H/R169H/T345S); test: Affinity of the peptide to T2 cell line: HLA-A2 labelling by FACS, relative to HIV pol 589-597; assay type: binding
# T1 construct: the human tumoral cell T2 which expresses the HLA-A*0201 molecule; endogenous in cells; host or cells: T2 cells (human, TAP1/2 negative)
# Text: The experimental protocol is similar to the one that was validated for peptides presented by the HLA-A*0201 (Tourdot et al., A general strategy to enhance immunogenicity of low-affinity HLA-A2.1-associated peptides: implication in the identification of cryptic tumor epitopes. Eur J Immunol. 2000 December; 30(12):3411-21). Affinity measurement of the peptides is achieved with the human tumoral cell T2 which expresses the HLA-A*0201 molecule, but which is TAP1/2 negative and incapable of presenting endogenous peptides.
# T2 cells (2.10^5 cells per well) are incubated with decreasing concentrations of peptides from 100 μM to 1.5625 μM in a AIMV medium supplemented with 100 ng/μl of human β2m at 37° C. for 16 hours. Cells are then washed two times and marked with the anti-HLA-A2 antibody coupled to PE (clone BB7.2, BD Pharmagen).
# The analysis is achieved by FACS (Guava Easy Cyte).
# A2. Solubilisation of Peptides
# Each peptide is solubilized by taking into account the amino acid composition. […] Other peptides are resuspended in water or PBS pH7.4.
# The experimental protocol, materials and methods correspond to those outlined in Example 2, with the only difference that the above mentioned (poly)peptides were used.
# [2] = test system: T cell responses (IFNγ-producing splenocytes); test: ELISPOT-IFNγ assay on splenocytes of vaccinated HLA-A2 humanized mice; assay type: in vivo, HLA-A2 (CB6F1-Tg(HLA-A*0201/H2-Kb)A*0201) mice; conditions: 100 μg vacc-pAg + 150 μg T13L + IFA s.c. d0 and d14; splenocytes d21 restimulated with vacc-pAg 10 μM
# Text: Briefly, HLA-A2 humanized mice (HLA-A2 (CB6F1-Tg(HLA-A*0201/H2-Kb)A*0201) were assigned randomly (based on mouse sex and age) to experimental groups, wherein each group was immunized with a specific vaccination peptide (vacc-pAg) combined to a common helper peptide (h-pAg T13L; sequence: […]; SEQ ID NO: 860; Bhasin M, Singh H, Raghava GP (2003) MHCBN: a comprehensive database of MHC binding and non-binding peptides. Bioinformatics 19: 665-666) (as outlined in Table 5 below). The vacc-pAg were compared in couples (group 1 vs. group 2, group 1 vs. group 3; group 1 vs. group 4; group 5 vs. group 6; group 7 vs. group 8; group 9 vs. group 10). Thereby, both native and optimized versions of a single peptide were compared in each wave.
# The peptides were provided as follows: • vacc-pAg: BIRC5-H, BIRC5-B1, BIRC5-B2, BIRC5-B3, FOXM1-H2, FOXM1-B2, EZH2-H2, EZH2-B2, 1L13RA2-H and IL13RA2-B; all produced and provided at a 4 mg/ml (4 mM) concentration; • h-pAg: T13L; Eurogentec batch 1713334 re-suspended in pure distilled water at a 10 mg/mL concentration
# The animals were immunized on day 0 (d0) with a prime injection, and on d14 with a boost injection. Each mouse was injected s.c. at tail base with 100 μL of an oil-based emulsion that contained: • 100 μg of vacc-pAg (25 μL of 4 mg/mL stock per mouse); • 150 μg of h-pAg (15 μL of 10 mg/mL stock per mouse); • 10 μL of PBS to reach a total volume of 50 μL (per mouse); • Incomplete Freund's Adjuvant (IFA) added at 1:1 (v:v) ratio (50 μL per mouse).
# A separate emulsion was prepared for each vacc-pAg, as follows: IFA reagent was added to the vacc-pAg/h-pAg/PBS mixture in a 15 mL tube and mixed on vortex for repeated cycles of 1 min until forming a thick emulsion.
# Seven days after the boost injection (i.e. on d21), the animals were euthanized and the spleen was harvested. Splenocytes were prepared by mechanical disruption of the organ followed by 70 μm-filtering and Ficoll density gradient purification.
# The splenocytes were immediately used in an ELISPOT-IFNγ assay (Table 6). Experimental conditions were repeated in triplicates, using 2*10^5 total splenocytes per well, and were cultured in presence of vacc-pAg (10 μM), lonomycin (0.1 μM) plus PMA (1 μM) or medium-only to assess for their capacity to secrete IFNγ. The commercial ELISPOT-IFNγ kit (Diaclone Kit Mujrine IFNγ ELISpot) was used following the manufacturer's instructions, and the assay was performed after about 19 h of incubation.
# Spots were counted on a CTL ELISpot reader. Data plotting and statistical analysis were performed with the Prism-5 software (GraphPad Software Inc.).
# The data were then normalized as a number of specific spots (the average counts obtained in the ‘medium only’ condition being subtracted) per 50*10^3 total T cells.
# The individual average values (obtained from the triplicates) were next used to plot the group average values. As the functional capacity of T cells might vary from individual to individual, the data were also expressed as the percentage of the ionomycin plus PMA response per individual (see FIG. 8).
# [3] = test system: T-cells (IFN-secreting splenocytes); test: Immunogenicity and cross-reactivity, IFN ELISpot on splenocytes of immunized HHD DR3 mice; assay type: in vivo; conditions: for immunogenicity: immune response after challenge with the vaccination peptide or the human corresponding peptide (IFN ELISpot): 100 μg peptide + 150 μg helper peptide (DR3) + IFA s.c. days 0 and 14, splenocytes day 21; for immune response against the corresponding human peptide (cross-reactivity): same immunisation
# Procedure: Concanavalin A (ConA) was used as a positive control.
# The antigenic peptide of the invention BIRC5-B1 (SEQ ID NO: 32) and the corresponding human peptide BIRC5-H (SEQ ID NO: 593) were tested in distinct groups of male and female HHD DR3 mice expressing human HLA-A2 and HLA-DR3 MHC and lacking the murine H-2 class I and class II MHCs. Groups of 5 mice (male and female) were subcutaneously injected on days 0 and 14 with 100 μg of BIRC5-B1 or BIRC5-H, 150 μg of helper peptide (DR3) and IFA. On day 21, the mice were euthanized and splenocytes were prepared and stimulated in vitro with BIRC5-B1 or the human peptide BIRC5-H to assess their capacity to secrete IFN—as assessed by ELISpot. ConA was used as a positive control.
# The antigenic peptide of the invention FOXM1-B2 (SEQ ID NO: 220) and the corresponding human peptide FOXM1-H2 (SEQ ID NO: 674) were tested in distinct groups of male and female HHD DR3 mice expressing human HLA-A2 and HLA-DR3 MHC and lacking the murine H-2 class I and class II MHCs. Groups of 5 mice (male and female) were subcutaneously injected on days 0 and 14 with 100 μg of FOXM1-B2 or FOXM1-H2, 150 μg of helper peptide (DR3) and IFA. On day 21, the mice were euthanized and splenocytes were prepared and stimulated in vitro with FOXM1-B2 or the human corresponding peptide FOXM1-H2 to assess their capacity to secrete IFN—as assessed by ELISpot. ConA was used as a positive control
# [4] = test system: T-cells (IFN-secreting splenocytes); test: Immunogenicity and cross-reactivity, confirmation in HHD DR1 mice; assay type: in vivo; conditions: HHD DR3 and HHD DR1 mice, summary of Examples 4 to 6
sequence,measurement,setting,value
FMLGEFLKL [BIRC5-B1],Concentration of peptide that induces 20% of HLA-A2 expression,"[1]; Example 2, Table 4",2.7 µM
same,Concentration of peptide that induces 20% of HLA-A2 expression,"[1]; Example 9, Table 9",1.24 µM
same,binding affinity to HLA-A*0201 compared with the other peptides tested (in words),"[1]; Examples 2, 7, 8, 9",considerably higher in vitro binding affinity
same,T cell responses in the ELISPOT-IFNγ assay compared to the respective human reference epitope,[2],improved T cell responses
same,immunogenicity: immune response after challenge with the vaccination peptide or the human corresponding peptide (IFN ELISpot),[3],strongly immunogenic
same,immune response against the corresponding human peptide (cross-reactivity),[3],able to drive an effective immune response against human corresponding peptide
same,immune responses induced,[4],induced strong immune responses
LMDLSTTEV [FOXM1-B2],Concentration of peptide that induces 20% of HLA-A2 expression,"[1]; Example 2, Table 4",6.7 µM
same,T cell responses in the ELISPOT-IFNγ assay compared to the respective human reference epitope,[2],improved T cell responses
same,immunogenicity: immune response after challenge with the vaccination peptide or the human corresponding peptide (IFN ELISpot),[3],strongly immunogenic
same,immune response against the corresponding human peptide (cross-reactivity),[3],able to drive an effective immune response against human corresponding peptide
same,immune responses induced,[4],induced strong immune responses
